In patent US12071437B1, “Pyrazolo[1,5-a]pyrido[4,3-e]pyrimidine-2-carboxylic acids as CK2 inhibitors” (KING FAISAL UNIVERSITY, priority 2024, dated 2024):
pIC50: −log10 of the molar value.

Assays:
[1] = system: HL60 (leukemia) cancer cells; test: In vitro cytotoxic activity MTT assay, HL60; format: cell-based; details: Homo sapiens, HL-60, 96 hours exposure, 50% inhibition of cell proliferation, read-out: Cytotoxicity activity IC50, HL60 (leukemia)
Experimental: (§1) Compounds 1-16 were screened for their in vitro cytotoxic activity utilizing a 3-(4,5-dimethyl-thiazol-2-yl)-2,5-diphenyltetrazolium bromide (MTT) assay against selected cancer human cell lines consisting of PC3 (prostate), HCT116 (colon), A375 (melanoma), H1299 (lung), MIAPaCa-2 (pancreas), HL60 (leukemia), MCF7 (breast), MDA-MB-231 (breast) (T. Mosmann, J. Immunol. Meth., 1983, 65, 55-63). The cells were cultured at 37° C. in RMPI1640 medium supplemented with 10% fetal bovine serum, 50 IU/mL penicillin, and 50 μg/mL streptomycin in a 5% CO2 incubator. All cells were sub-cultured 3 times/week by trypsinisation. Viable cells were seeded and allowed to adhere for 12 hours before a test drug was added in 96-well plates at an initial density of 1.0×10^5 cells/mL. Tumor cell lines were separately exposed to various concentrations of the tested compounds followed by incubation at a temperature of 37° C. during 96 hours inside a medium of fresh RMPI1640. Cells were subsequently incubated at 37° ° C. using MTT at 0.5 mg/mL during 4 hours. After removal of supernatant, formazan crystals were dissolved in isopropanol and the optical density was measured at 570 nm. CX-4945 was used as a positive control.

[2] = system: A375 (melanoma) cancer cells; test: In vitro cytotoxic activity MTT assay, A375; format: cell-based; details: Homo sapiens, A-375, 96 hours exposure, 50% inhibition of cell proliferation, read-out: Cytotoxicity activity IC50, A375 (melanoma)
Experimental: as §1

[3] = system: MDA-MB-231 (breast) cancer cells; test: In vitro cytotoxic activity MTT assay, MDA-MB-231; format: cell-based; details: Homo sapiens; MDA-MB-231 cells, 96 hours exposure, 50% inhibition of cell proliferation; read-out: Cytotoxicity activity IC50, MDA-MB-231 (breast)
Experimental: as §1

[4] = system: HCT116 (colon) cancer cells; test: In vitro cytotoxic activity MTT assay, HCT116; format: cell-based; details: Homo sapiens, HCT-116, 96 hours exposure, 50% inhibition of cell proliferation, read-out: Cytotoxicity activity IC50, HCT116 (colon)
Experimental: as §1

[5] = system: MIAPaCa-2 (pancreas) cancer cells; test: In vitro cytotoxic activity MTT assay, MIAPaCa-2; format: cell-based; details: Homo sapiens, MIA PaCa-2; MIAPaCa-2 cells, 96 hours exposure, 50% inhibition of cell proliferation; read-out: Cytotoxicity activity IC50, MIAPaCa-2 (pancreas)
Experimental: as §1

[6] = system: PC3 (prostate) cancer cells; test: In vitro cytotoxic activity MTT assay, PC3; format: cell-based; details: Homo sapiens, PC-3, 96 hours exposure, 50% inhibition of cell proliferation, read-out: Cytotoxicity activity IC50, PC3 (prostate)
Experimental: as §1

[7] = system: H1299 (lung) cancer cells; test: In vitro cytotoxic activity MTT assay, H1299; format: cell-based; details: Homo sapiens, NCI-H1299, 96 hours exposure, 50% inhibition of cell proliferation, read-out: Cytotoxicity activity IC50, H1299 (lung)
Experimental: as §1

[8] = target: T1, recombinant human CK2 (RRββ-holoenzyme) (Homo sapiens, UniProt P68400); test: CK2 Kinase Assay (33P-ATP, substrate peptide RRRDDDSDDD); format: biochemical; details: final ATP 15 μM, 10 min at 30° C., read-out: protein kinase CK2 inhibition IC50
T1 construct: purchased Millipore
Experimental: CK2 Kinase Assay was conducted using the protocol as described in Pierre F. et al; J. Med. Chem. 2011, 54, 635-654. The tested compounds in aqueous solution were added at a volume of 10 μL to a reaction mixture comprising 10 μL of assay dilution buffer (ADB; 20 mM MOPS, pH 7.2, 25 mM β-glycerol phosphate, 5 mM EGTA, 1 mM sodium orthovanadate, and 1 mM dithiothreitol), 10 μL of substrate peptide (RRRDDDSDDD, dissolved in ADB at a concentration of 1 mM), 10 μL of recombinant human CK2 (RRββ-holoenzyme, 25 ng dissolved in ADB; Millipore). Reactions were initiated by the addition of 10 μL of ATP solution (90% 75 mMMgCl2, 75 μM ATP (final ATP concentration: 15 μM) dissolved in ADB; 10% [γ-33P] ATP (stock 1 mCi/100 μL; 3000 Ci/mmol (Perkin-Elmer) and maintained for 10 min at 30° C. The reactions were quenched with 100 μL of 0.75% phosphoric acid and then transferred to and filtered through a phosphor cellulose filter plate (Millipore). After washing each well five times with 0.75% phosphoric acid, the plate was dried under vacuum for 5 min and, following the addition of 15 μL of scintillation fluid to each well, the residual radioactivity was measured using a Wallac […]. The IC50 values were derived from eight concentrations of test inhibitors.

[9] = system: MCF7 (breast) cancer cells; test: In vitro cytotoxic activity MTT assay, MCF7; format: cell-based; details: Homo sapiens, 96 hours exposure, 50% inhibition of cell proliferation, read-out: Cytotoxicity activity IC50, MCF7 (breast)
Experimental: as §1

T1 sequence (P68400 whole entry): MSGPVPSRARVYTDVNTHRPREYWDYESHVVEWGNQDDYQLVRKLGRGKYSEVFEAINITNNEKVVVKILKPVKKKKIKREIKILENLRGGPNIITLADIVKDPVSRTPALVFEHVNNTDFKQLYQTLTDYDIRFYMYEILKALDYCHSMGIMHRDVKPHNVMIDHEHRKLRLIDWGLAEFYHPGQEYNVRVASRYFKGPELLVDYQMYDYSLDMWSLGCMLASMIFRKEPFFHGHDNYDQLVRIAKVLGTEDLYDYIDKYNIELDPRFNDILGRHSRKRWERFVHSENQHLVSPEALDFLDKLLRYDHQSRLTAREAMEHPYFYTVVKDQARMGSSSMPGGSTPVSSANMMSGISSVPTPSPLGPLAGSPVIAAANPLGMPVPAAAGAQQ
T1 sequence (P67870 whole entry partner): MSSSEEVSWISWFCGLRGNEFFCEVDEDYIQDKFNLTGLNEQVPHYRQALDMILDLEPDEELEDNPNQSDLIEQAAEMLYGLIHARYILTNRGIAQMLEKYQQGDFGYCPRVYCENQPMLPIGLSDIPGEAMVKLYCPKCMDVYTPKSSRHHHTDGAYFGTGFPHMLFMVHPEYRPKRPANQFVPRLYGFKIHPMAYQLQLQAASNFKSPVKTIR

## O=C(O)c1cc2nc(Nc3cccc(Cl)c3)c3ccncc3n2n1 [Compound 1, 5-((3-Chlorophenyl)Amino)Pyrazolo[1,5-a]Pyrido[4,3-e]Pyrimidine-2-Carboxylic Acid]
[1]
  pIC50: 5.49
[2]
  pIC50: 5.35
[3]
  pIC50: 5.32
[4]
  pIC50: 5.80
[5]
  pIC50: 5.89
[6]
  pIC50: 5.77
[7]
  pIC50: 5.72
[8]
  pIC50: 7.14
[9]
  pIC50: 5.27
